Reference: patent US7256201B2, “Selective estrogen receptor-β ligands” (AstraZeneca AB, priority 2000, dated 2007)

Target: T1, human recombinant ERβ (Homo sapiens, UniProt Q92731)
T1 construct: purchased PanVera (Madison, Wis.)
Assay: Fluorescence polarization estrogen receptor (ERFP) binding assay, ERβ
Settings: competition with Fluormone ES2; IC50 converted to Ki by Kenakin formula; read-out: FP β-ER Ki
Procedure: (§1) A homogeneous mix-and-measure estrogen receptor (ER) binding assay which utilizes fluorescence polarization (FP) technology is used to identify compounds with affinity for the estrogen receptor. Purchased from PanVera (Madison, Wis.), assay reagents include purified human recombinant ERα, human recombinant ERβ, ES2 screening buffer (100 mM potassium phosphate, pH 7.4, 100 μg/mL bovine gamma globulin), and Fluormone™ ES2.
(§2) For competition binding experiments, dilutions of test compounds are prepared at 2× the final assay concentration in 0.2% DMSO in ES2 Screening buffer on TECAN Genosys, and 25 μL compound/well is dispensed into black Costar ½ volume 96-well plates. Dependent upon a lot specific Kd determination, 10-40 nM ERα or 10-40 nM ERβ and 1 nM Fluormone ES2 are then added to these plates in a final assay volume of 50 μL/well. Plates are gently shaken for at least 5 minutes to mix and incubated for at least 1 hr 45 minutes to achieve equilibrium. (Reaction mixtures are stable for up to 5 hours). After centrifugation to remove air bubbles, plates are read on an LJL Analyst or Acquest equipped with Criterion software at the following settings: Fluorescence Polarization Mode; Static Polarizer on Excitation Side; Dynamic Polarizer on Emission Side; Excitation λ=485×/−5 10 nm; Emission λ=520+/−12.5 nm.
(§3) Polarized fluorescence intensity values are collected and subsequently converted electronically to millipolarization (mp) values. Following data reduction and normalization with Excel and/or Prism software, % Ctrl values at the various test concentrations are used to obtain IC50 values via non-linear regression analysis of a four-parameter logistic equation.
(§4) Because ligand depletion is a consideration in this assay (˜40-60% input ES2 is bound in the assay), IC50 values are converted to Ki values through application of the Kenakin formula, as outlined in the reference below, rather than via the more routinely-used Cheng-Prusoff formula.

T1 sequence (Q92731 whole entry): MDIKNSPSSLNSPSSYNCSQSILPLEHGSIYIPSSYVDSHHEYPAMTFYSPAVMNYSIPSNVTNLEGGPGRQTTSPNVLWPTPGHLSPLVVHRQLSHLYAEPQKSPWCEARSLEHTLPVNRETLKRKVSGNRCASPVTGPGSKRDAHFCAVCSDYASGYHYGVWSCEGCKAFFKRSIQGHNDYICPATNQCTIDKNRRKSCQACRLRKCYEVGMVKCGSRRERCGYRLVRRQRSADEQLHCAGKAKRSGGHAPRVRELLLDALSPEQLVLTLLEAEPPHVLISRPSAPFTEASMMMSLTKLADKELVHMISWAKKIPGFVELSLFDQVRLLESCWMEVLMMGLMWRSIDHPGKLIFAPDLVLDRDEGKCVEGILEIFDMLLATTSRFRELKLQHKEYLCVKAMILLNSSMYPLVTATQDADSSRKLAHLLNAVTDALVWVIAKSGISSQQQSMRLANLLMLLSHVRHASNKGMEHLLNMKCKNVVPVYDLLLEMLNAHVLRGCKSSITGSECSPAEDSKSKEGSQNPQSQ

Row | Compound | Ki [nM]
1 | Oc1ccc(N2CCc3cc(O)ccc3C2c2ccccc2)cc1 (stereo not shown) [Example 6, 2-(4Hydroxyphenyl)-1-phenyl-1,2,3,4-tetrahydroisoquinolin-6-ol] | 10
2 | Oc1ccc(N2CCc3cc(O)ccc3C2c2ccc(Cl)cc2Cl)cc1 (stereo not shown) [Example 10, 1-(2,4-Dichlorophenyl)-2-(4-hydroxyphenyl)-1,2,3,4-tetrahydroisoquinolin-6-ol] | 7
3 | Cc1ccccc1C1c2ccc(O)cc2CCN1c1ccc(O)cc1 (stereo not shown) [Example 12, 2-(4-Hydroxyphenyl)-1-o-tolyl-1,2,3,4-tetrahydroisoquinolin-6-ol] | 8
4 | Oc1ccc2c(c1)CCN(c1ccc(Cl)cc1Cl)C2 [Example 13, 2-(2,4-Dichloro-phenyl)-1,2,3,4-tetrahydro-isoquinolin-6-ol] | 32
5 | CC1c2ccc(O)cc2CCN1c1ccc(O)cc1 (stereo not shown) [Example 14, 2-(4-Hydroxy-phenyl)-1-methyl-1,2,3,4-tetrahydro-isoquinolin-6-ol] | 45

Same assay, conditions: ratio α-ER Ki / β-ER Ki

Row | Compound | FP Selectivity
6 | Oc1ccc(N2CCc3cc(O)ccc3C2c2ccccc2)cc1 (stereo not shown) [Example 6, 2-(4Hydroxyphenyl)-1-phenyl-1,2,3,4-tetrahydroisoquinolin-6-ol] | 0.9
7 | Oc1ccc(N2CCc3cc(O)ccc3C2c2ccc(Cl)cc2Cl)cc1 (stereo not shown) [Example 10, 1-(2,4-Dichlorophenyl)-2-(4-hydroxyphenyl)-1,2,3,4-tetrahydroisoquinolin-6-ol] | 1.6
8 | Cc1ccccc1C1c2ccc(O)cc2CCN1c1ccc(O)cc1 (stereo not shown) [Example 12, 2-(4-Hydroxyphenyl)-1-o-tolyl-1,2,3,4-tetrahydroisoquinolin-6-ol] | 2.2
9 | Oc1ccc2c(c1)CCN(c1ccc(Cl)cc1Cl)C2 [Example 13, 2-(2,4-Dichloro-phenyl)-1,2,3,4-tetrahydro-isoquinolin-6-ol] | 1.8
10 | CC1c2ccc(O)cc2CCN1c1ccc(O)cc1 (stereo not shown) [Example 14, 2-(4-Hydroxy-phenyl)-1-methyl-1,2,3,4-tetrahydro-isoquinolin-6-ol] | 6.8

Target: T2, human recombinant ERα (Homo sapiens, UniProt P03372)
T2 construct: purchased PanVera (Madison, Wis.)
T2 sequence (P03372 1-595): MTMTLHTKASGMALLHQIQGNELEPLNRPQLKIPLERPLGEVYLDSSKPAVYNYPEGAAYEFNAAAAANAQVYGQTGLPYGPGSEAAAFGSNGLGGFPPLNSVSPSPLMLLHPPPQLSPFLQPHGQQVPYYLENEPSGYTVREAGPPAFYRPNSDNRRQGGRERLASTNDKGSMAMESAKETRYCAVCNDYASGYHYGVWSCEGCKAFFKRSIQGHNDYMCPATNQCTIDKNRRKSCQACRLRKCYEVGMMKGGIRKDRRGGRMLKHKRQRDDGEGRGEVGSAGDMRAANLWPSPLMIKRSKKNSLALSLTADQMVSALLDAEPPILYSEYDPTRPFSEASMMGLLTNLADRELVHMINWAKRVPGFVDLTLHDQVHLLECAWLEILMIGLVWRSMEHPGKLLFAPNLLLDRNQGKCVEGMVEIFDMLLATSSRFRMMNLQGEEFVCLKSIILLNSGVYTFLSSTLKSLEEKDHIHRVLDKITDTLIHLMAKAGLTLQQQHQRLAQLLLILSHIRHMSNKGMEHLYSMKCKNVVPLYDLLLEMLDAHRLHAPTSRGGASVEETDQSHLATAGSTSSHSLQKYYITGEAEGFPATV
Assay: Fluorescence polarization estrogen receptor (ERFP) binding assay, ERα
Settings: competition with Fluormone ES2; IC50 converted to Ki by Kenakin formula; read-out: FP α-ER Ki
Procedure: as §1, §2, §3, §4

Row | Compound | Ki [nM]
11 | Oc1ccc(N2CCc3cc(O)ccc3C2c2ccccc2)cc1 (stereo not shown) [Example 6, 2-(4Hydroxyphenyl)-1-phenyl-1,2,3,4-tetrahydroisoquinolin-6-ol] | 10
12 | Oc1ccc(N2CCc3cc(O)ccc3C2c2ccc(Cl)cc2Cl)cc1 (stereo not shown) [Example 10, 1-(2,4-Dichlorophenyl)-2-(4-hydroxyphenyl)-1,2,3,4-tetrahydroisoquinolin-6-ol] | 11
13 | Cc1ccccc1C1c2ccc(O)cc2CCN1c1ccc(O)cc1 (stereo not shown) [Example 12, 2-(4-Hydroxyphenyl)-1-o-tolyl-1,2,3,4-tetrahydroisoquinolin-6-ol] | 16
14 | Oc1ccc2c(c1)CCN(c1ccc(Cl)cc1Cl)C2 [Example 13, 2-(2,4-Dichloro-phenyl)-1,2,3,4-tetrahydro-isoquinolin-6-ol] | 55
15 | CC1c2ccc(O)cc2CCN1c1ccc(O)cc1 (stereo not shown) [Example 14, 2-(4-Hydroxy-phenyl)-1-methyl-1,2,3,4-tetrahydro-isoquinolin-6-ol] | 307

Target: T3, βER (Homo sapiens, UniProt Q92731)
T3 construct: expressed in transfected cells; host or cells: 293 cells (Human Embryonic Kidney, ATCC CRL-1573)
T3 sequence (Q92731 54-530 limits assumed): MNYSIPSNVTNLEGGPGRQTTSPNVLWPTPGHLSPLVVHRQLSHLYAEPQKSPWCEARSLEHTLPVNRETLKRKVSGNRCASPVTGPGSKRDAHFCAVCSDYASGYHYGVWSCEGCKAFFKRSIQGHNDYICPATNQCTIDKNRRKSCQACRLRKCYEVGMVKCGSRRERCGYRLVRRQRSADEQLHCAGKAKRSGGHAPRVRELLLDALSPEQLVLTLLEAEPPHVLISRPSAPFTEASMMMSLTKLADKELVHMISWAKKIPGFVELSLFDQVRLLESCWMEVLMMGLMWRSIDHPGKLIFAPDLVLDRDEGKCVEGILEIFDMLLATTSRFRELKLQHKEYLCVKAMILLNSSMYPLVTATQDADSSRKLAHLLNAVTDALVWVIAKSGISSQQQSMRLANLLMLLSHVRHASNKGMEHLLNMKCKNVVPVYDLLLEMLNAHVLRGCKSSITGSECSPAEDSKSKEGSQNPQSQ
Assay: Cell-based assay for ER transcriptional activity (ERE β-gal reporter), βER-transfected 293 cells
Settings: 293 cells transfected with βER and ERE reporter
Procedure: (§5) ERs are ligand-dependent transcription factors that bind the promoter regions of genes at a consensus DNA sequence called the estrogen responsive element (ERE). The ER agonist or antagonist activity of a drug was determined by measuring the amount of reporter enzyme activity expressed from a plasmid under the control of an estrogen-responsive element when cells transiently transfected with ER and the reporter plasmid were exposed to drug. These experiments were conducted according to the following methods.
(§6) Estrogen Receptors alpha (αER, Gen Bank accession #M12674), and beta (βER, Gen Bank #X99101 were cloned into the expression vector pSG5 (Stratagene). A trimer of the vitellogenin-gene estrogen response element (vitERE) was synthesized as an oligonucleotide and attached to a beta-globin basal promoter in a construct named pERE3 gal. This response element and promoter were removed from pERE3 gal by digestion with the endonucleases SpeI (filled with Klenow fragment) and HindIII. This blunt/Hind III fragment was cloned into the β-galactosidase (β-gal) enhancer reporter plasmid (pBGALenh, Stratagene). αER and βER plasmids were purified using a the Endo Free Maxi Kit (Qiagen), and the DNA concentration and purity (A260/280 ratio) were determined spectrophotometrically (Pharmacia). Only DNA with A260/280 ratio of 1.8 and a concentration of >1 ug/uL was used for transfections.
(§7) All Transfections are performed in 293 cells (Human Embryonic Kidney cells ATCC #CRL-1573). Cells are grown in DMEM supplemented with 10% FBS, glutamine, sodium pyruvate and penicilin/streptomycin. Cells are grown to 70% confluency and split 1:4.
(§8) • 1. 293 cells are split the night before onto collagen I-coated 150 mm tissue-culture plates (Biocoat, Becton Dickinson #354551) at a density of 60-70% in DMEM Mediatech 17-205-CV) 10% charcoal-stripped FBS (biocell #6201-31). Approximately 1×10^7 cells/plate will yield 70% confluency. • 2. The next morning, 1 hour prior to transfection, the media is changed to fresh DMEM 10% FBS stripped and supplements. • 3. Transfections are performed using the Profection Kit (Promega #E1200). This kit is based on the calcium-phosphate-mediated transfection technique. Reagents are added in sterile polystyrene tubes in the following order:
(§9) Solution A • 15 μg αER or βER • 45 μg Reporter (pBGALenh or ERE3) • 1.5 mL Sterile Water • 186 μL CaCl2 • *Mix gently
(§10) Solution B • 1.5 mL 2× Hank's Buffered Salt Solution • 4. Using a vortex set on low, add solution A to solution B dropwise. The resulting solution should become milky in color. It is important to achieve thorough mixing. The solution is allowed to settle for 30 minutes, then vortexed before adding the solution to cells. • 5. Add the mixture to 150 mm plates dropwise. Mix well by rocking plates back and forth and side to side gently. After an hour, a very fine precipitate should be seen floating on and above cells under 20× magnification. If this precipitate is not observed, the transfection will not be effective. Incubate the cells for 12 hours. Receptor Stimulation: • 1. The day after transfection, cells are washed 2× with calcium- and magnesium-free Mg free PBS containing 1 mM EGTA (pH 7.6). Cells are trypsinized for 2 min with 3 mL of trypsin-EDTA. Trypsin is neutralized with DMEM 10% FCS. Cells are pelleted at 1000×g for 5 min. The cell pellet is then resuspended in 5 mL DMEM plus 2% phenol-red-free FCS supplemented with glutamine, pyruvate, and Penn/Strep. • 2. 50 μl of the resulting cell suspension is plated into each well of 96-well tissue culture dishes (Biocoat B&D #354407) using a multi-channel pipettor. The dishes have been previously loaded with 50 μL of DMSO-solubilized test compounds at twice the test concentration in DMEM. Data reported are either n=4 wells (single poke) and n=2 wells (9-point concentration-response curves). • 3. Cells are incubated overnight at 37° C. in the selected compounds. Reporter Assay: • 1. […]

Row | Compound | EC50 [nM]
16 | Oc1ccc(N2CCc3cc(O)ccc3C2c2ccccc2)cc1 (stereo not shown) [Example 6, 2-(4Hydroxyphenyl)-1-phenyl-1,2,3,4-tetrahydroisoquinolin-6-ol] | 7.6
17 | CC1c2ccc(O)cc2CCN1c1ccc(O)cc1 (stereo not shown) [Example 14, 2-(4-Hydroxy-phenyl)-1-methyl-1,2,3,4-tetrahydro-isoquinolin-6-ol] | 143

Same assay, conditions: 293 cells transfected with βER and ERE reporter; maximal response; unit assumed

Row | Compound | ERE β-ER Max [%]
18 | Oc1ccc(N2CCc3cc(O)ccc3C2c2ccccc2)cc1 (stereo not shown) [Example 6, 2-(4Hydroxyphenyl)-1-phenyl-1,2,3,4-tetrahydroisoquinolin-6-ol] | 105
19 | Oc1ccc(N2CCc3cc(O)ccc3C2c2ccc(Cl)cc2Cl)cc1 (stereo not shown) [Example 10, 1-(2,4-Dichlorophenyl)-2-(4-hydroxyphenyl)-1,2,3,4-tetrahydroisoquinolin-6-ol] | 44
20 | Cc1ccccc1C1c2ccc(O)cc2CCN1c1ccc(O)cc1 (stereo not shown) [Example 12, 2-(4-Hydroxyphenyl)-1-o-tolyl-1,2,3,4-tetrahydroisoquinolin-6-ol] | 71
21 | Oc1ccc2c(c1)CCN(c1ccc(Cl)cc1Cl)C2 [Example 13, 2-(2,4-Dichloro-phenyl)-1,2,3,4-tetrahydro-isoquinolin-6-ol] | 69
22 | CC1c2ccc(O)cc2CCN1c1ccc(O)cc1 (stereo not shown) [Example 14, 2-(4-Hydroxy-phenyl)-1-methyl-1,2,3,4-tetrahydro-isoquinolin-6-ol] | 44

Same assay, conditions: ratio α-ER EC50 / β-ER EC50

Row | Compound | ERE Selectivity
23 | Oc1ccc(N2CCc3cc(O)ccc3C2c2ccccc2)cc1 (stereo not shown) [Example 6, 2-(4Hydroxyphenyl)-1-phenyl-1,2,3,4-tetrahydroisoquinolin-6-ol] | 0.1
24 | CC1c2ccc(O)cc2CCN1c1ccc(O)cc1 (stereo not shown) [Example 14, 2-(4-Hydroxy-phenyl)-1-methyl-1,2,3,4-tetrahydro-isoquinolin-6-ol] | 7.0

Target: T4, αER (Homo sapiens, UniProt P03372)
T4 construct: expressed in transfected cells; host or cells: 293 cells (Human Embryonic Kidney, ATCC CRL-1573)
T4 sequence (P03372 1-595): T2 sequence (P03372 1-595)
Assay: Cell-based assay for ER transcriptional activity (ERE β-gal reporter), αER-transfected 293 cells
Settings: 293 cells transfected with αER and ERE reporter; maximal response; unit assumed
Procedure: as §5, §6, §7, §8, §9, §10

Row | Compound | ERE α-ER Max [%]
25 | Oc1ccc(N2CCc3cc(O)ccc3C2c2ccccc2)cc1 (stereo not shown) [Example 6, 2-(4Hydroxyphenyl)-1-phenyl-1,2,3,4-tetrahydroisoquinolin-6-ol] | 100
26 | Oc1ccc(N2CCc3cc(O)ccc3C2c2ccc(Cl)cc2Cl)cc1 (stereo not shown) [Example 10, 1-(2,4-Dichlorophenyl)-2-(4-hydroxyphenyl)-1,2,3,4-tetrahydroisoquinolin-6-ol] | 95
27 | Cc1ccccc1C1c2ccc(O)cc2CCN1c1ccc(O)cc1 (stereo not shown) [Example 12, 2-(4-Hydroxyphenyl)-1-o-tolyl-1,2,3,4-tetrahydroisoquinolin-6-ol] | 113
28 | Oc1ccc2c(c1)CCN(c1ccc(Cl)cc1Cl)C2 [Example 13, 2-(2,4-Dichloro-phenyl)-1,2,3,4-tetrahydro-isoquinolin-6-ol] | 89
29 | CC1c2ccc(O)cc2CCN1c1ccc(O)cc1 (stereo not shown) [Example 14, 2-(4-Hydroxy-phenyl)-1-methyl-1,2,3,4-tetrahydro-isoquinolin-6-ol] | 42

Same assay, conditions: 293 cells transfected with αER and ERE reporter; read-out: ERE α-ER EC50

Row | Compound | EC50 [nM]
30 | Oc1ccc(N2CCc3cc(O)ccc3C2c2ccccc2)cc1 (stereo not shown) [Example 6, 2-(4Hydroxyphenyl)-1-phenyl-1,2,3,4-tetrahydroisoquinolin-6-ol] | 0.6
31 | CC1c2ccc(O)cc2CCN1c1ccc(O)cc1 (stereo not shown) [Example 14, 2-(4-Hydroxy-phenyl)-1-methyl-1,2,3,4-tetrahydro-isoquinolin-6-ol] | 1000
